In patent US10206398B2, “Five-membered C-N-attached aryl sulphide and aryl sulphoxide derivatives as pesticides” (BAYER CROPSCIENCE AKTIENGESELLSCHAFT, priority 2014, dated 2019):
Read-outs that look alike come from different tables or passages of the source. Values belong to the compound of their own block, whether it stands above or below them.

What was measured:
Phaedon cochleariae = Phaedon cochleariae - spray test; type: in vivo; details: 500 g/ha, Chinese cabbage leaf discs, after 7 days
Method: 4. Phaedon cochleariae—Spray Test
Solvent: 78.0 parts by weight of acetone
• 1.5 parts by weight of dimethylformamide Emulsifier: alkylaryl polyglycol ether
(§1) To produce a suitable preparation of active compound, 1 part by weight of active compound is dissolved using the stated parts by weight of solvent and made up with water containing an emulsifier concentration of 1000 ppm until the desired concentration is attained. To produce further test concentrations, the preparation is diluted with emulsifier-containing water.
After 7 days, the efficacy in % is determined. 100% means that all the beetle larvae have been killed; 0% means that no beetle larvae have been killed.

Tetranychus urticae [1] = test: Tetranychus urticae - spray test, OP-resistant (bean leaf discs, 6 days); type: in vivo; details: 500 g/ha, after 6 days
Summary of the method: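 Bean leaf discs carrying all stages of OP-resistant Tetranychus urticae were sprayed with compound formulated in acetone/DMF and diluted in water with 1000 ppm emulsifier. Mortality was scored after 6 days as % efficacy, where 100% means all mites were killed.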

[2] = log P determination by HPLC on reversed-phase columns (C 18), analogous to OECD Guideline 117; type: physicochemical; details: for logP[a]: method [a]; for logP[b]: method [b]; for chromatographic logP: reversed-phase HPLC column (C 18)
Summary of the method: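 Reversed-phase C18 HPLC per OECD 117, two conditions: [a] pH 2.7, 0.1% formic acid water/acetonitrile, log P(HCOOH); [b] pH 7.8, 0.001 M ammonium hydrogencarbonate/acetonitrile, log P(neutral). Both use a 10–95% acetonitrile gradient; values are interpolated from retention times against C3–C16 unbranched alkan-2-ones.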

Meloidogyne incognita = Meloidogyne incognita - test; type: in vivo; details: 20 ppm, lettuce, after 14 days
Method: 2. Meloidogyne incognita—Test Solvent: 125.0 parts by weight of acetone To produce a suitable preparation of active compound, 1 part by weight of active compound is mixed with the stated amount of solvent and the concentrate is diluted with water to the desired concentration. Vessels are filled with sand, active compound solution, an egg/larvae suspension of the southern root-knot nematode (Meloidogyne incognita) and lettuce seeds. The lettuce seeds germinate and the plants develop. The galls develop on the roots. After 14 days, the nematicidal efficacy in % is determined by the formation of galls. 100% means that no galls were found; 0% means that the number of galls on the treated plants corresponds to the untreated control.

Boophilus microplus = Boophilus microplus - injection test; type: in vivo; details: 20 μg/animal, injection into engorged adult female cattle ticks, assessed after 7 days
Method: 1. Boophilus microplus—Injection Test
Solvent: dimethyl sulphoxide
To produce a suitable preparation of active compound, 10 mg of active compound are mixed with 0.5 ml of solvent and the concentrate is diluted with solvent to the desired concentration.
1 μl of the active compound solution is injected into the abdomen of 5 engorged adult female cattle ticks (Boophilus microplus). The animals are transferred into dishes and kept in a climate-controlled room.
Efficacy is assessed after 7 days by laying of fertile eggs. Eggs which are not visibly fertile are stored in a climate-controlled cabinet until the larvae hatch after about 42 days. An efficacy of 100% means that none of the ticks has laid any fertile eggs; 0% means that all the eggs are fertile.

Tetranychus urticae [3] = test: Tetranychus urticae - spray test, OP-resistant (bean plants, 7 days); type: in vivo; details: 20 ppm, after 7 days
Method: 6. Tetranychus urticae—Spray Test, OP-Resistant
Solvent: 7 parts by weight of dimethylformamide
Emulsifier: alkylaryl polyglycol ether
as §1, with “water. If the addition of ammonium salts or/and penetrants is required, these are each added in a concentration of 1000 ppm to the formulation solution.” for “water.”
Bean plants (Phaseolus vulgaris) heavily infested by all stages of the greenhouse red spider mite (Tetranychus urticae) are treated by spraying with the active compound preparation of the desired concentration.
After 7 days, the efficacy in % is determined. 100% means that all the spider mites have been killed; 0% means that no spider mites have been killed.

Myzus persicae = Myzus persicae - spray test; type: in vivo; details: 500 g/ha, Chinese cabbage leaf discs, after 6 days
Method: 3. Myzus persicae—Spray Test Solvent: 78 parts by weight of acetone • • 1.5 parts by weight of dimethylformamide Emulsifier: alkylaryl polyglycol ether To produce a suitable preparation of active compound, 1 part by weight of active compound is dissolved using the stated parts by weight of solvent and made up with water containing an emulsifier concentration of 1000 ppm until the desired concentration is attained. To produce further test concentrations, the preparation is diluted with emulsifier-containing water. Discs of Chinese cabbage leaves (Brassica pekinensis) infested by all stages of the green peach aphid (Myzus persicae) are sprayed with an active compound preparation of the desired concentration. After 6 days, the efficacy in % is determined. 100% means that all the aphids have been killed; 0% means that no aphids have been killed.

Compound: Cc1cc(F)c(N2C(=O)CN(C(=O)Nc3ccc(F)cc3)C2=O)cc1SCC(F)(F)F [compound 39]
efficacy (beetle larvae killed) (Phaedon cochleariae): 100%
efficacy (spider mites killed) (Tetranychus urticae [1]): 100%
logP[a] [2]: 3.85
logP[b] [2]: 3.75

Compound: Cc1cc(F)c(N2C(=O)CN(C(=O)Nc3cccc(CC(F)(F)F)c3)C2=O)cc1[S+]([O-])CC(F)(F)F (centres unmarked) [compound 43]
efficacy (beetle larvae killed) (Phaedon cochleariae): 83%
efficacy (spider mites killed) (Tetranychus urticae [1]): 100%
nematicidal efficacy (formation of galls) (Meloidogyne incognita): 100%
logP[a] [2]: 3.45
logP[b] [2]: 3.41
efficacy (laying of fertile eggs) (Boophilus microplus): 100%

Compound: Cc1cc(F)c(N2C(=O)CN(C(=O)NCC(F)(F)F)C2=O)cc1[S+]([O-])CC(F)(F)F (single isomer, unassigned) [Ex. No. 136]
efficacy (spider mites killed) (Tetranychus urticae [3]): 100%
logP[a] [2]: 2.4
logP[b] [2]: 2.43

Compound: Cc1cc(F)c(N2C(=O)CN(C(=O)NCC(F)(F)F)C2=O)cc1SCC(F)(F)F [Ex. No. 30, 3-[2-Fluoro-4-methyl-5-(2,2,2-trifluoroethylsulphanyl)phenyl]-2,4-dioxo-N-(2,2,2-trifluoroethyl)imidazolidine-1-carboxamide]
efficacy (beetle larvae killed) (Phaedon cochleariae): 83%
pest or weed control at 500 g/ha (Tetranychus urticae [1]; Tetranychus urticae, foliar, 144 h, read-out: efficacy (spider mites killed)): 90%
chromatographic logP ([2]; pH 2.7, HPLC, acidic range, pH 2.7, 0.1% aqueous formic acid and acetonitrile, read-out: log P(HCOOH)): 3.28
chromatographic logP ([2]; pH 2.7, method [a], read-out: logP[a]): 3.28
chromatographic logP ([2]; pH 7.8, HPLC, neutral range, pH 7.8, 0.001 molar aqueous ammonium hydrogencarbonate and acetonitrile, read-out: log P(neutral)): 3.21
chromatographic logP ([2]; pH 7.8, method [b], read-out: logP[b]): 3.21

Compound: Cc1cc(C)c(N2C(=O)CN(C(=O)NCC(F)(F)F)C2=O)cc1SCC(F)(F)F [compound 38]
efficacy (beetle larvae killed) (Phaedon cochleariae): 100%
efficacy (spider mites killed) (Tetranychus urticae [1]): 100%
logP[a] [2]: 3.46
logP[b] [2]: 3.33

Compound: CCC(C)NC(=O)N1CC(=O)N(c2cc(SCC(F)(F)F)c(C)cc2F)C1=O (centres unmarked) [compound 44]
efficacy (beetle larvae killed) (Phaedon cochleariae): 100%
efficacy (spider mites killed) (Tetranychus urticae [1]): 100%
logP[a] [2]: 3.64
logP[b] [2]: 3.58

Compound: Cc1cc(F)c(N2C(=O)CN(C(=O)Nc3cccc(CC(F)(F)F)c3)C2=O)cc1SCC(F)(F)F [compound 37]
efficacy (beetle larvae killed) (Phaedon cochleariae): 83%
efficacy (spider mites killed) (Tetranychus urticae [1]): 100%
logP[a] [2]: 4.32
logP[b] [2]: 4.24

The next lines start with results.

logP[a] [2]: 3.55
logP[b] [2]: 3.50
Compound: Cc1cc(Cl)c(N2C(=O)CN(C(=O)Nc3cccc(Cl)c3)C2=O)cc1[S+]([O-])CC(F)(F)F (racemic) [compound 72]
efficacy (beetle larvae killed) (Phaedon cochleariae): 100%
efficacy (spider mites killed) (Tetranychus urticae [1]): 100%
nematicidal efficacy (formation of galls) (Meloidogyne incognita): 90%
efficacy (laying of fertile eggs) (Boophilus microplus): 100%

logP[a] [2]: 3.55
logP[b] [2]: 3.56
Compound: Cc1cc(F)c(N2C(=O)C(C)N(C(=O)NCC(F)(F)F)C2=O)cc1SCC(F)(F)F (racemic) [compound 79]
efficacy (beetle larvae killed) (Phaedon cochleariae): 100%
efficacy (spider mites killed) (Tetranychus urticae [1]): 100%
efficacy (laying of fertile eggs) (Boophilus microplus): 100%

logP[a] [2]: 3.31
logP[b] [2]: 3.25
Compound: Cc1cc(F)c(N2C(=O)CN(C(=O)Nc3cccc(Cl)c3)C2=O)cc1[S+]([O-])CC(F)(F)F (centres unmarked) [compound 48]
efficacy (beetle larvae killed) (Phaedon cochleariae): 83%
efficacy (spider mites killed) (Tetranychus urticae [1]): 100%
nematicidal efficacy (formation of galls) (Meloidogyne incognita): 90%
efficacy (laying of fertile eggs) (Boophilus microplus): 100%

logP[a] [2]: 3.5
logP[b] [2]: 3.53
Compound: O=C(NCC(F)(F)F)N1CC(=O)N(c2cc(SCC(F)(F)F)c(Cl)cc2Cl)C1=O [compound 106]
efficacy (beetle larvae killed) (Phaedon cochleariae): 83%
efficacy (spider mites killed) (Tetranychus urticae [1]): 100%

logP[a] [2]: 3.84
logP[b] [2]: 3.71
Compound: Cc1cc(F)c(N2C(=O)CN(C(=O)NC(C)(C)C)C2=O)cc1SCC(F)(F)F [compound 54]
efficacy (beetle larvae killed) (Phaedon cochleariae): 100%
efficacy (spider mites killed) (Tetranychus urticae [1]): 100%
nematicidal efficacy (formation of galls) (Meloidogyne incognita): 100%
efficacy (laying of fertile eggs) (Boophilus microplus): 100%

logP[a] [2]: 3.68
logP[b] [2]: 3.64
Compound: Cc1cc(Cl)c(N2C(=O)CN(C(=O)Nc3cccc(CC(F)(F)F)c3)C2=O)cc1[S+]([O-])CC(F)(F)F (racemic) [compound 71]
efficacy (beetle larvae killed) (Phaedon cochleariae): 100%
efficacy (spider mites killed) (Tetranychus urticae [1]): 100%
nematicidal efficacy (formation of galls) (Meloidogyne incognita): 90%

logP[a] [2]: 3.51
logP[b] [2]: 3.40
Compound: Cc1cc(Cl)c(N2C(=O)CN(C(=O)NCC(F)(F)F)C2=O)cc1SCC(F)(F)F [compound 53]
efficacy (beetle larvae killed) (Phaedon cochleariae): 83%
efficacy (spider mites killed) (Tetranychus urticae [1]): 100%

logP[a] [2]: 2.46
logP[b] [2]: 2.50
Compound: Cc1cc(C)c([S+]([O-])CC(F)(F)F)cc1N1C(=O)CN(C(=O)Nc2ccccn2)C1=O (racemic) [compound 118]
efficacy (beetle larvae killed) (Phaedon cochleariae): 100%

logP[a] [2]: 4.09
logP[b] [2]: 3.96
Compound: CCC(C)(C)NC(=O)N1CC(=O)N(c2cc(SCC(F)(F)F)c(C)cc2F)C1=O [compound 101]
efficacy (beetle larvae killed) (Phaedon cochleariae): 83%
efficacy (spider mites killed) (Tetranychus urticae [1]): 100%
nematicidal efficacy (formation of galls) (Meloidogyne incognita): 90%

logP[a] [2]: 3.02
logP[b] [2]: 2.97
Compound: Cc1cc(F)c(N2C(=O)CN(C(=O)Nc3cccc(F)c3)C2=O)cc1[S+]([O-])CC(F)(F)F (centres unmarked) [compound 46]
efficacy (spider mites killed) (Tetranychus urticae [1]): 100%
efficacy (laying of fertile eggs) (Boophilus microplus): 100%
efficacy (aphids killed) (Myzus persicae): 90%
